Converted amounts (≈) assume the structure as drawn.
system: Anopheles minimus; test: Larvicidal activity in Anopheles minimus HO by WHO method; type: functional

First: COC1=C(C)C(=O)O/C1=C1\O[C@]23CCCN4[C@H]([C@@H]5C[C@H](C)C(=O)O5)[C@H](C[C@H]4[C@H]2[C@@H]1C)O3 [OXYPROTOSTEMONINE]
Second: CC[C@H](O)[C@@H]1CC[C@@H]2O[C@@]34CCCN1[C@@H]2[C@H]3[C@H](C)/C(=C1/OC(=O)C(C)=C1OC)O4 [STEMOCURTISINOL]
The LC50 of the first is 9.8-fold lower: 4 µg/mL (≈ 9.27 µM) for the first, 39 µg/mL (≈ 96.2 µM) for the second.

`COC1=C(C)C(=O)O/C1=C1\O[C@@]23CCCN4CCC[C@H](O2)[C@H]4[C@H]3[C@@H]1C` [STEMOCURTISINE] was tested, and the LC50 was 18 µg/mL (≈ 51.8 µM).

From ChEMBL document CHEMBL1151182, “Phytochemical and larvicidal studies on Stemona curtisii: structure of a new pyrido[1,2-a]azepine Stemona alkaloid” (2004)
